# Entries after “also recorded” stand apart in the source; their conditions may differ. Residues, ends and D or L forms follow the SMILES beside them. No end group written: not given here.
# Tests used:
# SNL pain model = test: SNL pain model, Von Frey test; details: 2 mg/kg I.P.; one, three and seven hours after administration; FIG. 7
# pain caused by capsaicin = test: Capsaicin test (pain behavioral response); assay type: in vivo, C57BL/6N mouse; details: 0.5 mg/kg I.P. one hour before 0.01% capsaicin; 0 to 5 minutes; FIG. 5
# Method: An in vivo test was performed with the peptides of SEQ ID NOS: 5, 6, 9, and 11.
# • a. […] Preparation of positive control material: BCTC was homogeneously dissolved in a saline solution at a concentration of 3 mg/mL. • e.
# • a. Preparation of test materials: The peptides of SEQ ID NOS: 5, 6, 9, and 11 were dissolved in a saline solution to prepare at a concentration of 0.05 mg/mL. • b.
# • a. Saline solution, BCTC, and peptides of SEQ ID NOS: 5, 6, 9, and 11, the administered materials corresponding to each group, were administered in advance about one hour before capsaicin administration. • b. One hour after the test material administration to each group, 20 μL of 0.01% capsaicin was injected subcutaneously into the sole of the right foot. • c. After administering […] to each subject, the time at which pain behavioral responses (licking, biting, etc.) appeared was measured in the interval of 0 to 5 minutes. • d. Grooming in regions other than the region where capsaicin was administered was not counted. • e.
# In a previous study, the pain inhibiting effect was confirmed through a formalin test. To confirm whether such pain inhibiting phenomenon is through TRPV1, the pain response pattern was investigated after subcutaneous injection of capsaicin, which is one of the TRPV1 activators.
# pain caused by formalin = test: Formalin test (pain behavioral response); assay type: in vivo, ICR mouse; details: 2nd phase (20 to 40 minutes), vs saline group, FIG. 4
# Method: An in vivo test was performed with the peptides of SEQ ID NOS: 11 and 12.
# • a. […] Preparation of positive control material: Pregabalin was homogeneously dissolved in a saline solution at a concentration of 3 mg/mL. • e.
# • a. Saline solution, pregabalin, peptide of SEQ ID NO: 11, and peptide of SEQ ID NO: 12, the administered materials corresponding to each group, were administered in advance about one hour before formalin administration. • b. One hour after the test material administration to each group, 20 μL of 2% formalin was injected subcutaneously into the sole of the right foot. • c. After administering […] to each subject, the time at which pain behavioral responses (licking, biting, etc.) appeared was measured in the intervals of 0 to 5 minutes and 20 to 40 minutes. • d. Grooming in regions other than the region where formalin was administered was not counted. • e.
# The formalin test is a method of evaluating the degree of pain by subcutaneously injecting formalin into the dorsum of the hind paw of a mouse and then observing the behavior that appears thereafter. The degree of pain is evaluated by the number of times or duration of flinching responses. […]
# CCI pain model = test: CCI pain model, Von Frey test; details: amount printed 1 mg/ml (0.1 mg/mL, 200 μL I.P.); two hours after administration; FIG. 6
# hTRPV1 = target: T1, hTRPV1 (Homo sapiens, UniProt Q8NER1); test: Calcium imaging (Fura-2AM) of capsaicin-induced Ca2+ influx in TRPV1 CHO-K1 cells; assay type: cell-based; details: for TRPV1 inhibitory activity / inhibition rate (screening): screening of peptides; for inhibition at 0.001 µM: peptide at 1 nM; for inhibition at 0.005 µM: peptide at 5 nM; for inhibition at 0.1 µM: peptide at 100 nM; for influx of calcium into TRPV1 channel (ΔF/F): FIG. 1, peptide injected
# T1 construct: expressed in transfected cells; the earlier reading calls it TRPV1 CHO-K1 cells
# Method: The TRPV1 inhibitory effect of various short-length peptides, including the 49 peptides in Tables 5 and 6, was evaluated by the following method.
# All reagents used in cell culture were sterilized products. The culture medium of the cell line is shown in Table 7 below, and the culture was performed in a cell incubator with under the culture conditions of […] and 37° C. In addition, when cryopreserved cells (stock) were thawed and used, they were subcultured two to three times before use in the test.
# After removing the cell culture medium by suction, 10 ml DPBS was added to wash the cells, and then the DPBS was removed by suction. 2 ml 0.05% trypsin-EDTA was added, and then the cells were cultured in a cell incubator at 37° C. for three to five minutes. Through a microscope, detachment of the cells from the bottom surface of the culture dish was confirmed, and 8 ml of the cell culture medium including 10% FBS was added to inactivate the trypsin-EDTA. Cells in the culture dish were collected, pipetted, and transferred to a 15 ml tube.
# Centrifugation was performed at 800 rpm for five minutes, and all the supernatant except the cell pellet was removed. Then, the cell culture medium was added, and the pellet was carefully loosened.
# After measuring the number of cells with a hemocytometer, the cells were dispensed at 1×10^3 cells/10 μl/coverslip at the center of a 12 mm cover slip coated with poly-D-lysine.
# A 35π petri dish containing the cover slip was stored in a cell incubator, and when the cells were attached to the cover slip after one to two hours, 2 ml of the cell culture medium was added and stored in the cell incubator again.
# The sample was added to 200 ml distilled water (DW) and mixed according to the composition in Table 8 below.
# The pH was adjusted to a range of 7.3 to 7.4 using 5 N NaOH, and then distilled water (DW) was added to adjust the final volume to 250 ml.
# Capsaicin was dissolved in 100% ethanol to prepare a 10 mM stock. Capsaicin, a TRPV1 activating substance, was diluted in the extracellular solution to a concentration of 0.1-1 mM before using in the experiment.
# The test material (peptide according to the present invention) was dissolved in a solvent and then diluted to an appropriate concentration in the extracellular solution before using in the experiment.
# 2 mM Fura-2AM was prepared by adding 24.95 ml of DMSO to 50 mg of Fura 2AM powder, which is used as a membrane-permeable fluorescent marker. After the experiment, the remaining Fura-2AM was stored at −20° C. for reuse and covered with silver foil to prevent exposure to light.
# 2 mM Fura-2AM was diluted 1/1000 in a cell culture medium without FBS and antibiotics to prepare 1 ml Fura-2AM (based on a 35π Petri dish) to a final concentration of […]. After removing the cell culture medium in the 35π Petri dish, the cells were washed once with 2 ml DPBS. 1 ml of the Fura-2AM solution prepared above was transferred to a 35π Petri dish, and the cells were cultured in a cell incubator for 40 min.
# To operate calcium imaging equipment, an IRIS-9 camera was turned on and then a computer was powered on. To operate a perfusion system, a suction device was powered on, 20 to 30 ml of distilled water was added to each perfusion syringe, and suction was performed while allowing the distilled water to flow into the chamber (syringe wash).
# The extracellular solution and test materials prepared in advance were placed in the syringes washed with distilled water, and smooth flow of the solutions from each syringe into the chamber was confirmed. At this time, clips were used to block all the lines except one syringe line to be checked. In other words, the flow of the solution through only a single syringe line without the clip was checked (When the solution flows through two or more lines, the solutions could have been mixed.).
# CIPN pain model = test: CIPN (paclitaxel) pain model, Von Frey test; assay type: in vivo, SD rat; details: one, three and seven hours after administration, FIG. 8
# Method: • a. […] Preparation of positive control material: Prebabalin was homogeneously dissolved in a saline solution at a concentration of 30 mg/10 mL and used. • e.
# • a. […] Chemotherapy induced peripheral neuropathy (CIPN) pain modeling
# Paclitaxel was dissolved at 2 mg/10 ml in a solution prepared by mixing cremophor EL and absolute ethanol at a 1:1 ratio, and the resulting solution was administered intraperitoneally in the amount of 2 ml each. Chemotherapy-induced pain was induced by administering paclitaxel once a day at 24-hour intervals for 4 days. • c. Confirmation of pain induction
# Drug administration and confirmation of analgesic efficacy
# Statistical analysis processing
# [1] = CHO-K1, read-out: hTRPV1 activity inhibited compared to the control group
# T1 sequence (Q8NER1 whole entry): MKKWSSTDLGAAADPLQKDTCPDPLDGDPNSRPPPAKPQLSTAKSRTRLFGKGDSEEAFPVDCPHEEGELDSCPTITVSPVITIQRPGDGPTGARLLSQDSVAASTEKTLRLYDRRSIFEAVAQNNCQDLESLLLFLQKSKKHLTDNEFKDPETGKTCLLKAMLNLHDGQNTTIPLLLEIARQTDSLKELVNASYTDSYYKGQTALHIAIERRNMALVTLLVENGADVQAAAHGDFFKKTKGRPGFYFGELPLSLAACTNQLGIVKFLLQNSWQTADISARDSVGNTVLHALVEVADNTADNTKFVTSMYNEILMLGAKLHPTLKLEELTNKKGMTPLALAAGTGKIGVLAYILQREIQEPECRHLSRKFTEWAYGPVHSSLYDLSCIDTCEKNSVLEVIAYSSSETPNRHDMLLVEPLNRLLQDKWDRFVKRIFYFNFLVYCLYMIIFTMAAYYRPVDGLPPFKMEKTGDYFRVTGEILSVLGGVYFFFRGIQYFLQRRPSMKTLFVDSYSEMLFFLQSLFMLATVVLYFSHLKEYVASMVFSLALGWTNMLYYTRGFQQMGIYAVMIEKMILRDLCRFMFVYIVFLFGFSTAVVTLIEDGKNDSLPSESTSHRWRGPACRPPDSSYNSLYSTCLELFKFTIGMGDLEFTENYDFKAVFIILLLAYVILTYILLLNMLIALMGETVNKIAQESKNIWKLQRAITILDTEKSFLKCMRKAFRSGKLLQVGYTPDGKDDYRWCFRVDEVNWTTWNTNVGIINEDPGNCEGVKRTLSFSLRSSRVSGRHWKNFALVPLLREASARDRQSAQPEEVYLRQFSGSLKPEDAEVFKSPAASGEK
Molecule,"pain behavioral response threshold (Von Frey), after vs before administration (SNL pain model)","pain behavioral response (licking, biting) after capsaicin (pain caused by capsaicin)","pain behavioral response (licking, biting) after formalin (pain caused by formalin; 8 mg/kg I.P. one hour before 2% formalin)","pain behavioral response threshold (Von Frey), after vs before administration (CCI pain model)",TRPV1 inhibitory activity / inhibition rate (screening) (hTRPV1),"pain behavioral response threshold (Von Frey), after vs before administration (CIPN pain model; 4 mg/kg I.P.)","pain behavioral response (licking, biting) after formalin (pain caused by formalin; 4 mg/kg I.P. one hour before 2% formalin)","pain behavioral response threshold (Von Frey), after vs before administration (CIPN pain model; 2 mg/kg I.P.)","inhibition at 0.0005 µM (hTRPV1; CHO-K1, peptide at 0.5 nM, read-out: hTRPV1 activity inhibited compared to the control group)",inhibition at 0.001 µM (hTRPV1; [1]),inhibition at 0.005 µM (hTRPV1; [1]),inhibition at 0.1 µM (hTRPV1; [1]),influx of calcium into TRPV1 channel (ΔF/F) (hTRPV1),"inhibition at 0.01 µM (hTRPV1; CHO-K1, peptide at 10 nM, read-out: hTRPV1 activity inhibited compared to the control group)","inhibition at 0.05 µM (hTRPV1; CHO-K1, peptide at 50 nM, read-out: hTRPV1 activity inhibited compared to the control group)","inhibition at 0.5 µM (hTRPV1; CHO-K1, peptide at 500 nM, read-out: hTRPV1 activity inhibited compared to the control group)"
YGQCYMWMQKW [SEQ ID NO: 11],the pain behavioral response threshold increased after the administration compared to before the administration,significant decrease of the pain behavioral response; also recorded: inhibited the pain caused by the peripheral and central sensitization,significant decrease of the pain behavioral response in the 2nd phase,the pain behavioral response threshold increased after the administration compared to before the administration,high inhibition rate of TRPV1,the pain behavioral response threshold increased after the administration compared to before the administration,,,,,,,,,,
AGQCYMFMQKY [SEQ ID NO: 9],,inhibited the pain caused by the peripheral and central sensitization,,,high inhibition rate of TRPV1,,,,,,,,,,,
YGQCYMYMQKW [SEQ ID NO: 12],the pain behavioral response threshold increased after the administration compared to before the administration,,,the pain behavioral response threshold increased after the administration compared to before the administration,high inhibition rate of TRPV1,,significant decrease of the pain behavioral response in the 2nd phase,the pain behavioral response threshold increased after the administration compared to before the administration,,,,,,,,
"SGQCYMFMQKY [SEQ ID NO: 6, SGQCYMFMQKY]",,significant decrease of the pain behavioral response; also recorded: inhibited the pain caused by the peripheral and central sensitization,,,high inhibition rate of TRPV1,,,,~9%,16%,51%,70%,the influx of calcium was significantly reduced,,,
"C[C@H](NC(=O)[C@H](CCCCN)NC(=O)[C@@H](N)Cc1ccc(O)cc1)C(=O)N[C@@H](CC(N)=O)C(=O)N[C@@H](Cc1ccc(O)cc1)C(=O)N[C@@H](CS)C(=O)N[C@@H](CO)C(=O)NCC(=O)N[C@@H](CCC(N)=O)C(=O)N[C@@H](CS)C(=O)N[C@@H](Cc1ccc(O)cc1)C(=O)O [SEQ ID NO: 5, YKANYCSGQCY] (H-YKANYCSGQCY-OH; N-terminus and C-terminus assumed)",,significant decrease of the pain behavioral response; also recorded: inhibited the pain caused by the peripheral and central sensitization,,,high inhibition rate of TRPV1,,,,,~20%,53%,77%,the influx of calcium was significantly reduced,75%,79%,95%

# Reference: patent US20250002532A1, “A NOVEL PEPTIDE AND THE USE THEREOF” (Rudacure Corporation, priority 2023, published 2025)
